“Also recorded” adds a separate entry of the source. Where two headings read alike, the source gives them in different places.
What was measured:
[1] = tested on: mitochondrial membrane potential of rat cortical neurons; type: cell-based
Experimental: Curve fits are non-formulaic software interpolations of the data points.
Changes in mitochondrial function that could be associated with the increased vesicular activity were evaluated. Mitochondria generate the energy for synaptic transmission in the form of ATP, and as a byproduct of this oxidative phosphorylation, they are also one of the primary producers of intracellular ROS. Two key mitochondrial parameters were examined in response to Tat and PAF: 1) mitochondrial membrane potential (ΔΨm) [as assessed by mitochondrial uptake of the lipophilic cationic dyes tetramethylrhodamine ethyl or methyl ester (TMRE or TMRM respectively)], and 2) ATP production (as measured by luciferase assay). The electronegative mitochondrial membrane potential provides the driving force for calcium buffering and ATP production by the mitochondria, and as such, ΔΨm is frequently used as an indicator of mitochondrial health and energetic capacity. Moreover, fluctuations in ΔΨm can trigger mitochondrial release of pro-apoptotic factors, an event most frequently associated with a loss of ΔΨm.
Monitoring alterations in ΔΨm with TMRM: In the relevant methods described herein, changes in mitochondrial membrane potential (ΔΨm) in response to Tat or PAF treatment is assessed by TMRM, which must equilibrate across the plasma membrane before entering the mitochondria; and in whole cell applications dye concentration in the mitochondria is dependent on both plasma membrane potential (ΔΨp) and AΨm. At sufficiently low dye concentrations (TMRM =1 nM, i.e. high cell/dye ratio) and normal membrane potentials, ≧95% of the dye is in the mitochondria, and ≦1% in the media, which results in an approximately 100× sensitivity of the dye to ΔΨm over ΔΨp, given equivalent changes in plasma or mitochondrial membrane potential [Rottenberg, H. and S. Wu, Biochim Biophys Acta, 1998. 1404(3): p. 393-40].
For these methods, primary rodent neurons are treated with reagent under normal culture conditions for the indicated time period, followed by removal of the media, 1×2 minute wash in pre-warmed 37° C. HBSS plus 10 mM glucose and 10 mM HEPES (HBSS+), then incubation in HBSS+ with 1 nM TMRE/M. Following equilibration of the dye for 20 minutes to ensure distribution across the mitochondrial membrane, the cells are imaged while remaining in the 1 nM TMRE/M solution, as is necessary for a continued dye equilibrium state. Random field images are taken using an Olympus IX-70 microscope and 40× objective (fluorescent excitation: 545; emission: 610) and Apogee KX32ME CCD camera, and the mean relative fluorescent unit (RFU) value of the neuronal soma and processes (excluding mitochondria deficient regions) is quantified using Scanalytics IPLab software.

[2] = tested on: CA1 pyramidal neurons in hippocampal slices; parameters: species or system rodent
Experimental: CA1 pyramidal neurons were exposed to 1 μM cPAF or vehicle for 30-60min and simultaneously imaged and recorded by whole-cell patch clamp before and after delivery of a high-frequency stimulus (HFS: three 1s, 100 Hz trains, every 20 s) applied to Schaffer collateral axons via a bipolar stimulating electrode planted in the stratum radiatum. (A) Dendrite beading in a cPAF-exposed cell 45min after HFS, with no disruption of dendrite or spine morphology in control cells. […] (C) Excitatory synaptic transmission between Shaffer collateral axons and CA1 pyramidal neurons is strongly potentiated following HFS in control slices. […] (EPSP traces at baseline and 40 min from representative control cell and cPAF-treated beaded cell are at right.) […]
Explant hippocampal slices are exposed to HIV-1 neurotoxins±agents that reverse mitochondrial hyperpolarization. Beading and LTP are then be measured:
Hippocampal slice preparation: Brains from anesthetized P14-28 rodents are rapidly removed and cooled in sucrose based artificial cerebrospinal fluid (ACSF) containing in mM: 110 sucrose, 60 NaCl, 3 KCl, 1.25 NaH2PO4, 28 NaHCO3, 10 D-glucose, 0.5 CaCl2, 7 MgSO4, 0.6 ascorbate. The brains are blocked and fixed to a specimen stage with cyanoacrylate. Coronal slices (250-400 μm in thickness) are cut with a vibroslicer (World Precision Instruments, Fla., USA) equipped with a Peltier cooling system. The middle four to six slices of each hippocampus (with the entorhinal cortex removed) are placed into a holding chamber prior to use.
Measuring dendritic beading and postsynaptic potentials in single CA1 cells in hippocampal slices: Dendritic arbors of individual CA1 pyramidal cells are imaged while simultaneously recording excitatory postsynaptic potentials in the same cell by patch clamp recordings in whole-cell configuration. Recording pipettes ([…] resistance) are pulled from 1.5 mm borosilicate glass using a horizontal Flaming/Brown micropipette puller (Sutter Instrument Co, Calif.), fire-polished, and filled with intracellular recording solution (in mM: KCl 20, potassium gluconate 130, EGTA 0.5, HEPES 10, MgSO4 2, ATP 2.5, GTP 0.5, pH 7.3). In order to visualize dendrites of the recorded cell, Alexa 568 hydrazide (30 μM) is included in the recording pipette and is injected by small negative current pulses for 15-20 min prior to recording in order to fill the dendritic arbor. Hippocampal slices are bathed in artificial CSF (containing, in mM: NaCl 125, KCl 2.5, NaH2PO4 1.25, NaHCO3 25, CaCl2 2, MgCl2 1, D-glucose 25, oxygenated and buffered with 5% CO2). Membrane potentials of CA1 pyramidal cells are recorded in current clamp mode, and postsynaptic potentials are evoked by test pulses of constant-current stimulation applied via a bipolar stimulating electrode placed 50-200 μm away in the stratum radiatum. Bicuculline (10 μM) is included in the bath to isolate excitatory postsynaptic potentials. After at least 10 min of consistent baseline recording, a high-frequency LTP induction stimulus (HFS, consisting of four 1 s, 100 Hz trains delivered every 15 s) is applied. EPSPs are recorded for 60 min following HFS. At the same time, dendrites are imaged at 40× magnification by fluorescence microscopy, using a shutter to limit fluorescent light exposure and prevent phototoxic injury to the slice. Serial images of dendrites are compared to detect development of focal swellings along dendritic shafts following HFS. Cells are scored as beaded if swellings develop along any of their dendrites.
Field potential recording and induction of LTP in hippocampal slices: Single-cell recordings are complemented by extracellular field potential recordings: while single cell recordings allow correlation of electrophysiologic data with dendritic beading in the same cell, extracellular recordings sample responses from populations of dendrites and are less invasive. […]

[3] = tested on: NO release by human primary monocytes; assay: Tat-induced nitric oxide release by primary monocytes (Griess reaction); type: cell-based; details: co-treatment with Tat, 8 h; R-PIA 1 μM
Experimental: Human primary monocytes were treated with Tat in the presence or absence of the indicated adenosine receptor agonists for 8 h, and nitric oxide levels in the culture medium of the cells were then quantitated using the Griess reaction (Active Motif). Data represent mean+SEM of three experiments.
(§1) The effect of adenosine receptor activation on Tat-induced upregulation of iNOS expression and NO release was then determined. […] In contrast, incubation of cells with 1 μM R-PIA (an adenosine A1 receptor agonist) had no effect on Tat-induced iNOS expression or NO release (FIG. 11), implicating the A2A and A3 receptor subtypes in this anti-inflammatory effect. ZM241385 (an A2AR antagonist) or MRS 1220 (an A3R antagonist) could prevent the anti-inflammatory effects of CGS21680 or IB-MECA, respectively.

[4] = tested on: iNOS expression in human primary monocytes; assay: Tat-induced iNOS expression in primary monocytes; type: cell-based; details: for prevention of the anti-inflammatory effects of CGS21680 or IB-MECA, respectively: Tat-treated monocytes, iNOS/NO
Experimental: as §1

[5] = tested on: cortical cultures; assay: Tat-induced apoptotic cell death in cortical cultures
Experimental: Quantifying Cell Death: Cell death is assessed by visualizing fragmented DNA per the TUNEL method as described previously as well [Perry, S. W., et al., J Neurosci Res, 2004. […] Briefly, after treatment in 24 well plates, cells are fixed with Histochoice MB Tissue Fixative (Amresco) then TUNEL-labeled with the ApopTag kit (Chemicon) according to kit instructions. Cells are visualized under Hoffman modulation contrast optics using a 40× objective, and images taken of ten random fields per well from 3 replicate wells per condition. Data is expressed as percent Apoptag-positive neurons [(# Apoptag positive neurons/)(Total neurons))33 100] (or Trypan blue positive neurons where applicable) per field, then field values averaged for a mean cell death value per well. Mean values from 3 or more (see “power” calculations below) wells are averaged for a final mean cell death value for each condition±SEM; the analyses is made without knowledge of the treatment group.

[6] = tested on: rat cerebellar granule neurons (CGNs); assay: Tat-induced apoptosis of cerebellar granule neurons (TUNEL); type: cell-based; details: Tat 500 nM, 48 h
Experimental: (§2) CGNs were exposed to HIV-1 Tat (Tat, 500 nM), or vehicle alone (NT), in the presence or absence of the A2A antagonist, ZM241385. After 48 h, cultures were analyzed for the percentage of apoptotic cells using the TUNEL assay. Data represent mean±SEM for one experiment that was performed in triplicate; data are representative of two independent experiments.
as §2, with “(No Tat),” for “(NT),”, “A2AR antagonists, ATL455 and ZM241385, or the A2AR agonists ATL313 and CGS21680.” for “A2A antagonist, ZM241385.”
(1) Primary rat cerebellar granule neurons (CGNs). CGNs represent a highly homogenous population of primary neurons which are susceptible to Tat and PAF-mediated cell killing and have been used in many of previous studies. CGN cells are isolated according to published procedures [Maggirwar, S. B., et al. 1999. J Neurochem 73:578-86] [Tong, N., et al. 2001. Eur J Neurosci 13:1913-22].
78(4): p. […] 22(6): p. 1102-6].
Primary rat cerebellar granule neurons (CGNs) were exposed to a neurotoxic concentration of HIV-1 Tat, in the presence or absence of an A2AR antagonist (ZM241385). […] It is important to note that CGNs express adenosine A2A receptors [Vacas, J., et al. 2003. Brain Res 992:272-280].
Primary cultures of rat cerebellar granule neurons (CGNs) were exposed to HIV-Tat ([…]) alone or together with increasing doses of the A2AR antagonist ATL-455 or A2A agonists ATL313 or CGS21680. Cells are treated with the test compounds for defined time intervals of up to 48 hours (1, 4, 8, 24, and 48 hours).

**Q.** How did the “effect on mitochondrial TMRE/M signal” value [1] turn out when `N#CC(C#N)=NNc1ccc(OC(F)(F)F)cc1` [FCCP, Trifluorocarbonylcyanide Phenylhydrazone] was run?
**A.** The value was “substantially diminished; also recorded: loss of TMRM signal”.

**Q.** What about the “effect on ΔΨm” value [1] of the same compound?
**A.** Its value is “normalizes ΔΨm back to baseline levels but not below”.

**Q.** What about the “Beading Prediction” value [2] of the same compound?
**A.** The value was “Prevented”.

**Q.** What about the “LTP Prediction” value [2] of the same compound?
**A.** Its value is “Achieved”.

**Q.** What about the Δψm [2] of the same compound?
**A.** Its Δψm is “Normalized”.

**Q.** And the Δψm ([2]; FCCP, no neurotoxin (vehicle))?
**A.** The Δψm was “Slightly”.

**Q.** Which “effect on Tat-induced NO secretion” value [3] does the source give for `CNC(=O)[C@H]1O[C@@H](n2cnc3c(NCc4cccc(I)c4)ncnc32)[C@H](O)[C@@H]1O` [IB-MECA] here?
**A.** Its value is “complete abrogation”.

**Q.** And the “inhibition of Tat-induced iNOS expression” value ([4]; co-treatment with Tat)?
**A.** Its value is “roughly 50%”.

**Q.** With `O=C(Cc1ccccc1)Nc1nc2ccc(Cl)cc2c2nc(-c3ccco3)nn12` [MRS 1220] as the compound, how does the “prevention of the anti-inflammatory effects of CGS21680 or IB-MECA, respectively” value [4] read?
**A.** The value was “prevent”.

**Q.** Which results are given for `C[C@H](Cc1ccccc1)Nc1ncnc2c1ncn2[C@@H]1O[C@H](CO)[C@@H](O)[C@H]1O` [R-PIA]?
**A.** effect on Tat-induced NO secretion [3]: no effect; effect on Tat-induced iNOS expression ([4]; 1 μM): no effect

**Q.** With `CCCCNC(=O)NS(=O)(=O)c1ccc(C)cc1` [Tolbutamide] as the compound, how does the “effect on ΔΨm, alone” value ([1]; tolbutamide 100 μM alone) read?
**A.** Its value is “no significant effect”.

**Q.** What about the “effect on Tat mediated rise in ΔΨm” value ([1]; tolbutamide 100 μM, Tat 0.1 or 2.5 μg/ml, 1 and 24 hours) of the same compound?
**A.** Its value is “blocked; also recorded: completely prevented”.

**Q.** What about the “toxicity, alone” value ([5]; tolbutamide 100 μM alone) of the same compound?
**A.** The value was “no toxicity”.

**Q.** What about the “effect on Tat's induction of apoptotic cell death” value ([5]; tolbutamide 100 μM, Tat 0.1 or 2.5 μg/ml, 24 hours) of the same compound?
**A.** Its value is “attenuating apoptotic cell death; also recorded: partially attenuated”.

**Q.** What does the source list for `Nc1nc(NCCc2ccc(O)cc2)nc2nc(-c3ccco3)nn12` [ZM241385, 4(2-[7-Amino-2-(2-furyl)[1,2,4]triazolo[2,3-a][1,3,5]triazin-5-ylamino]ethyl)phenol]?
**A.** effect on Tat-induced neuronal apoptosis [6]: protect neurons; also recorded: protects neurons against Tat-induced apoptosis; prevention of the anti-inflammatory effects of CGS21680 or IB-MECA, respectively [4]: prevent

**Q.** TNF-α was tested. Which “effect on ΔΨm” value ([1]; neurotoxin alone) did it give?
**A.** The value was “dose dependent increases”.

From US20080269161A1, “Compositions and Methods Relating to Mitochondrial Hyperpolarization in Neurological Disease” (priority 2005, published 2008)
